Laboratory results as given in US20140294745A1, “CORAL EXTRACT FOR SKIN WHITENING, MOISTURE RETENTION, ELASTICITY IMPROVEMENT, ANTI-INFLAMMATION AND OCCLUSION OF WOUNDS AND EXTRACTING METHOD THEREOF” (UNI-PRESIDENT BIOTECH CO., LTD., priority 2013, published 2014).

Assays:
[1] = system: zebra fishes (AB strain Danio rerio); assay: Whitening activity analysis in vivo (zebra fish melanin); conditions: 20 mM; immersed forty-eight hours
Text: The test uses zebra fishes (AB strain Danio rerio), in which fish edge is above four months, as test brood fishes, and the fishes are bred in an acrylic water tank having a filter and a circulation system. Water temperature is controlled at 28.5 degrees Celsius, and light-dark cycle is respectively controlled at fourteen and ten hours.
The medicine to be tested must be dissolved in 100% DMSO solution, and finally concentration must also concern DMSO and medicine concentration.
Embryos that have been fertilized for nine hours is taken and injected into a 96 well culture dish, and three embryos and 100 μl Hank's buffer are disposed in each well. 100 μl taken from the prepared medicine is injected into each well, and after adequately and uniformly mixing the mixture, an orifice plate is covered to avoid draining water content away to change the concentration. […]
Obtained fish images are opened by image processing software (Image J 1.43 g; National Institute of Health, Bethesda, Md., U.S.A.), and under ranges where the minimum threshold is set at 0, and where the maximum threshold is set at 85, melanin of each group of zebra fishes is performed with quantitative analysis.

Mushroom tyrosinase = Mushroom tyrosinase inhibition capability analysis; assay type: biochemical; conditions: positive control, 100 μM
Method: In a 96 well plate, 70 μl PBS, 20 μl specimen solution having different concentrations is added into each pore, and the mixture is uniformly mixed. Next, 10 μl 12U tyrosinase is added to place the plate in the cultivation chest at 37 degrees Celsius to react for thirty minutes. 10 μl 15 mM L-dopa is further added, and after continuously placing the plate in the cultivation chest to react for thirty minutes, the variance of absorbance is measured at 492 nm wavelengths. By taking H2O or 50% EtOH as the control group, the anti-oxidation rate of the object to be tested is obtained by inhibition of tyrosinase % (IT %) as the following formula. When peroxidation rate of lipid inhibition is higher, antioxidative function is stronger. Inhibition of tyrosinase %, IT %=[1−(absorbance of sample at 492 nm)/(absorbance of the control group that is not added with samples at 492 nm)]×100.

SMILES	melanin content of zebra fishes [1]	Mushroom tyrosinase inhibition capability (Mushroom tyrosinase)
OC[C@H]1O[C@@H](Oc2ccc(O)cc2)[C@H](O)[C@@H](O)[C@@H]1O [arbutin]	50%	–
O=C1O[C@H]([C@@H](O)CO)C(O)=C1O [vitamin C]	–	38.0 ± 0.4%
